System: 677734-321-R-J1-PDC complex spheroid viability
Test: Anticancer human tumor 677734-321-R-J1-PDC patient-derived soft tissue sarcoma cell line growth inhibition [POLQ]
Conditions: for IC50: curve of first compound; for viability, T/C: stronger effect = lower value
How it was run: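 Three-cell-type spheroids modelling solid tumor plus stroma served as the readout system; POL inhibitors were tested individually and in combination, concentration ranges set by clinical Cmax where known.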

[1] = second compound 0.0316 µM, first compound 0.0316 µM
[2] = second compound 0.0316 µM, first compound 0.1 µM
[3] = second compound 0.0316 µM, first compound 0.316 µM
[4] = second compound 0.0316 µM, first compound 1 µM
[5] = second compound 0.0316 µM, first compound 3.16 µM
[6] = second compound 0.0316 µM, first compound 10 µM
[7] = second compound 0.1 µM, first compound 0.0316 µM
[8] = second compound 0.1 µM, first compound 0.1 µM
[9] = second compound 0.1 µM, first compound 0.316 µM
[10] = second compound 0.1 µM, first compound 1 µM
[11] = second compound 0.1 µM, first compound 3.16 µM
[12] = second compound 0.1 µM, first compound 10 µM
[13] = second compound 0.316 µM, first compound 0.0316 µM
[14] = second compound 0.316 µM, first compound 0.1 µM
[15] = second compound 0.316 µM, first compound 0.316 µM
[16] = second compound 0.316 µM, first compound 1 µM
[17] = second compound 0.316 µM, first compound 3.16 µM
[18] = second compound 0.316 µM, first compound 10 µM
[19] = second compound 1 µM, first compound 0.0316 µM
[20] = second compound 1 µM, first compound 0.1 µM
[21] = second compound 1 µM, first compound 0.316 µM
[22] = second compound 1 µM, first compound 1 µM
[23] = second compound 1 µM, first compound 3.16 µM
[24] = second compound 1 µM, first compound 10 µM
[25] = second compound 3.16 µM, first compound 0.0316 µM
[26] = second compound 3.16 µM, first compound 0.1 µM
[27] = second compound 3.16 µM, first compound 0.316 µM
[28] = second compound 3.16 µM, first compound 1 µM
[29] = second compound 3.16 µM, first compound 3.16 µM
[30] = second compound 3.16 µM, first compound 10 µM
[31] = second compound 10 µM, first compound 0.0316 µM
[32] = second compound 10 µM, first compound 0.1 µM
[33] = second compound 10 µM, first compound 0.316 µM
[34] = second compound 10 µM, first compound 1 µM
[35] = second compound 10 µM, first compound 3.16 µM
[36] = second compound 10 µM, first compound 10 µM
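Also: spheroids exposed to compounds for one week.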
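For viability, T/C in this document: 100% = vehicle DMSO treated spheroids.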

## C=CC(=O)N1CCN(c2nc(=O)n(-c3c(C)ccnc3C(C)C)c3nc(-c4c(O)cccc4F)c(F)cc23)C(C)C1 (centres undefined) + COC1C(OC(N)=O)C(O)C(Oc2ccc3c(O)c(NC(=O)c4ccc(O)c(CC=C(C)C)c4)c(=O)oc3c2C)OC1(C)C
Second compound 0.0316 µM
  IC50: > 10 µM
Second compound 0.1 µM
  IC50: > 10 µM
Second compound 0.316 µM
  IC50: > 10 µM
Second compound 1 µM
  IC50: > 10 µM
Second compound 3.16 µM
  IC50: > 10 µM
Second compound 10 µM
  IC50: > 10 µM
[1]
  viability, T/C: 109%
[2]
  viability, T/C: 92.4%
[3]
  viability, T/C: 102%
[4]
  viability, T/C: 97.1%
[5]
  viability, T/C: 104%
[6]
  viability, T/C: 86.4%
[7]
  viability, T/C: 102%
[8]
  viability, T/C: 104%
[9]
  viability, T/C: 103%
[10]
  viability, T/C: 102%
[11]
  viability, T/C: 99.9%
[12]
  viability, T/C: 81.7%
[13]
  viability, T/C: 102%
[14]
  viability, T/C: 97.3%
[15]
  viability, T/C: 106%
[16]
  viability, T/C: 101%
[17]
  viability, T/C: 107%
[18]
  viability, T/C: 84.8%
[19]
  viability, T/C: 98.4%
[20]
  viability, T/C: 99.3%
[21]
  viability, T/C: 104%
[22]
  viability, T/C: 113%
[23]
  viability, T/C: 105%
[24]
  viability, T/C: 89.2%
[25]
  viability, T/C: 102%
[26]
  viability, T/C: 101%
[27]
  viability, T/C: 105%
[28]
  viability, T/C: 106%
[29]
  viability, T/C: 106%
[30]
  viability, T/C: 80.7%
[31]
  viability, T/C: 107%
[32]
  viability, T/C: 103%
[33]
  viability, T/C: 96%
[34]
  viability, T/C: 106%
[35]
  viability, T/C: 95.8%
[36]
  viability, T/C: 86.7%

## CC(C)n1c(=O)n(C)c2cnc3cc(F)c(-c4ccc(OCCCN5CCCCC5)nc4)cc3c21 + COC1C(OC(N)=O)C(O)C(Oc2ccc3c(O)c(NC(=O)c4ccc(O)c(CC=C(C)C)c4)c(=O)oc3c2C)OC1(C)C
Second compound 0.0316 µM
  IC50: > 10 µM
Second compound 0.1 µM
  IC50: > 10 µM
Second compound 0.316 µM
  IC50: > 10 µM
Second compound 1 µM
  IC50: > 10 µM
Second compound 3.16 µM
  IC50: > 10 µM
Second compound 10 µM
  IC50: > 10 µM
[1]
  viability, T/C: 117%
[2]
  viability, T/C: 104%
[3]
  viability, T/C: 109%
[4]
  viability, T/C: 107%
[5]
  viability, T/C: 111%
[6]
  viability, T/C: 110%
[7]
  viability, T/C: 104%
[8]
  viability, T/C: 109%
[9]
  viability, T/C: 106%
[10]
  viability, T/C: 111%
[11]
  viability, T/C: 117%
[12]
  viability, T/C: 101%
[13]
  viability, T/C: 108%
[14]
  viability, T/C: 107%
[15]
  viability, T/C: 106%
[16]
  viability, T/C: 113%
[17]
  viability, T/C: 112%
[18]
  viability, T/C: 106%
[19]
  viability, T/C: 108%
[20]
  viability, T/C: 102%
[21]
  viability, T/C: 113%
[22]
  viability, T/C: 113%
[23]
  viability, T/C: 109%
[24]
  viability, T/C: 107%
[25]
  viability, T/C: 107%
[26]
  viability, T/C: 107%
[27]
  viability, T/C: 106%
[28]
  viability, T/C: 115%
[29]
  viability, T/C: 104%
[30]
  viability, T/C: 107%
[31]
  viability, T/C: 109%
[32]
  viability, T/C: 106%
[33]
  viability, T/C: 111%
[34]
  viability, T/C: 113%
[35]
  viability, T/C: 106%
[36]
  viability, T/C: 102%
